For 18 compounds, IC50 results are on record in US8158650B2, “Substituted phenylmethyl bicyclocarboxyamide compounds” (Pfizer Inc., priority 2006, dated 2012).

human VR1, sequence (Q8NER1 whole entry): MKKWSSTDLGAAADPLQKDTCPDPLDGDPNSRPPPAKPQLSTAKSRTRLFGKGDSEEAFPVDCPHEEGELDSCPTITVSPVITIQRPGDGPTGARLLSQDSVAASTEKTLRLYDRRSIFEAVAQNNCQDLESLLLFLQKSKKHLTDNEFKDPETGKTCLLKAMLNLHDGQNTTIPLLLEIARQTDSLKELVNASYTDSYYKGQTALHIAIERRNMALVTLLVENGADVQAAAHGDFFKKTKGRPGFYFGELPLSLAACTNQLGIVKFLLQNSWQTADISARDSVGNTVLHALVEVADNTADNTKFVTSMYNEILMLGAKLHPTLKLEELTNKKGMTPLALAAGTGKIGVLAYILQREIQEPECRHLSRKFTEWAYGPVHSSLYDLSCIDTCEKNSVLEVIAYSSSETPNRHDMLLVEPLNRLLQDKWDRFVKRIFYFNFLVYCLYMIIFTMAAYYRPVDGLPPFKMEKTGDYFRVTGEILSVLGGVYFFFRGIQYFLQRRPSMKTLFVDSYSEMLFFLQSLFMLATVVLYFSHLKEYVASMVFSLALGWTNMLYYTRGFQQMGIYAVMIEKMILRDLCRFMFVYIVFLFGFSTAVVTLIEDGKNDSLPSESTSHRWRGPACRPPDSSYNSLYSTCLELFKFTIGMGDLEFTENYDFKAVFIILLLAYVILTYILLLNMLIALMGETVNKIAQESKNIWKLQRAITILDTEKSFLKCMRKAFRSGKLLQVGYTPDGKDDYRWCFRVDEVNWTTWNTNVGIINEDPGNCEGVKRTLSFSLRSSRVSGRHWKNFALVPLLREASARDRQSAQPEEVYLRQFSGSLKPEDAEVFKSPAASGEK

The assay deals with human VR1 (Homo sapiens, UniProt Q8NER1). The assay can be described thus: Human VR1 antagonist assay (Ca2+ imaging). It counts as cell-based. Conditions: intracellular Ca2+ imaging (fura-2) in cells expressing human VR1 receptors; stimulus (capsaicin or acid) not given. From the text:
VR1 antagonistic activity can be determined by the Ca^2+ imaging assay using human VR1 highly expressing cells. The cells that highly express human VR1 receptors are obtainable from several different conventional methods. The one standard method is cloning from human Dorsal Root Ganglion (DRG) or kidney according to the methods such as described in the journal article; Nature, 389, pp 816-824, 1997. Alternatively VR1 receptors highly expressing human keratinocytes are also known and published in the journal article (Biochemical and Biophysical Research Communications, 291, pp 124-129, 2002). […] Furthermore, the method to up regulate human VR1 gene, which is usually a silent gene or don't produce detectable level of VR1 receptors, is also available to obtain propriety cells. Such genetic modification method was described in detail; Nat. Biotechnol., 19, pp 440-445, 2001.
The cells that express human VR1 receptors were maintained in culture flask at 37° C. in an environment containing 5% CO2 until use in the assay. The intracellular Ca^2+ imaging assay to determine VR1 antagonistic activities were done by following procedures.
The culture medium was removed from the flask and fura-2/AM fluorescent calcium indicator was added to the flask at a concentration of 5 μM in the medium. The flask was placed in CO2 incubator and incubated for 1 hour. Then the cells expressing the human VR1 receptors were detached from the flask follow by washing with phosphate buffer saline, PBS(−) and re-suspended in assay buffer. The 80 μl of aliquot of cell suspension (3.75×10^5 cells/ml) was added to the assay plate and the cells were spun down by centrifuge (950 rpm, 20° C., 3 minutes).
The compounds of the examples were tested in the Human VR1 antagonist assay described above.
The capsaicin-induced changes in the intracellular calcium concentration were monitored using FDSS 6000 (Hamamatsu Photonics, Japan), a fluorometric imaging system. The cell suspension in Krebs-Ringer HEPES (KRH) buffer (115 mM NaCl, 5.4 mM KCl, 1 mM MgSO4, 1.8 mM CaCl2, 11 mM D-Glucose, 25 mM HEPES, 0.96 mM Na2HPO4, pH 7.3) were pre-incubated with varying concentrations of the test compounds or KRH buffer (buffer control) for 15 minutes at room temperature under the dark condition. Then capsaicin solution, which gives 300 nM in assay mixture, was automatically added to the assay plate by the FDSS 6000.
The acid-induced changes in the intracellular calcium concentration were monitored using FDSS 6000 (Hamamatsu Photonics, Japan), a fluorometric imaging system. The cell suspension in resting buffer (HBSS supplemented with 10 mM HEPES, pH 7.4) were pre-incubated with varying concentrations of the test compounds or resting buffer (buffer control) for 15 minutes at room temperature under the dark condition. The cells were automatically added the stimulating solution (HBSS supplemented with MES, final assay buffer pH5.8) by the FDSS 6000.
The monitoring of the changes in the fluorescence signals (λex=340 nm/380 nm, λem=510-520 nm) was initiated at 1 minute prior to the addition of capsaicin solution or acidic buffer and continued for 5 minute.
For the compound `COc1cc([C@@H](C)NC(=O)c2ccc3nc(C(C)(C)C)ccc3c2)ccc1O` [Example D15, 2-tert-Butyl-N-[(1R)-1-(4-hydroxy-3-methoxyphenyl)ethyl]quinoline-6-carboxamide], the IC50 was determined as 0.254 µM. `C[C@@H](NC(=O)c1ccc2nc(C(C)(C)C)ccc2c1)c1ccc(CO)cc1` [Example D8, 2-tert-Butyl-N-{(1R)-1-[4-(hydroxymethyl)phenyl]ethyl}quinoline-6-carboxamide] yielded an IC50 of 0.434 µM. The result for `Cc1cc([C@H](C)NC(=O)c2ccc3nc(C(C)(C)C)ccc3c2)c(Cl)cc1O` [Example D7, 2-tert-Butyl-N-[(1S)-1-(2-chloro-4-hydroxy-5-methylphenyl)ethyl]quinoline-6-carboxamide] reads 0.0319 µM; that for `COc1cc(CNC(=O)c2ccc3nc(C(C)(C)C)ccc3c2)c(Cl)cc1O` [Example D2, 2-tert-Butyl-N-(2-chloro-4-hydroxy-5-methoxybenzyl)quinoline-6-carboxamide], 0.176 µM; that for `Oc1cc2c(cc1O)CN(C(=S)NCCc1ccc(Cl)cc1)CCC2` [Capsazepine, reference compound], 0.237 to 0.455 µM. `Cc1cc([C@@H](C)NC(=O)c2ccc3nc(C(C)(C)C)ccc3c2)c(Cl)cc1O` [Example D5, 2-tert-butyl-N-[(1R)-1-(2-chloro-4-hydroxy-5-methylphenyl)ethyl]5 quinoline-6-carboxamide]: inhibition was half-maximal at 0.331 µM (IC50).

For the compound `COc1cc(Cl)c([C@@H](C)NC(=O)c2ccc3cc(C(C)(C)C)ccc3c2)cc1C` [Example A1, 6-tert-Butyl-N-[(1R)-1-(2-chloro-4-methoxy-5-methylphenyl)ethyl]-2-naphthamide], the IC50 is 0.0935 µM. On to `Cc1cc([C@@H](C)NC(=O)c2ccc3nc(C(C)(C)C(F)(F)F)ccc3c2)c(Cl)cc1O` [Example D13, N-[(1R)-1-(2-Chloro-4-hydroxy-5-methylphenyl)ethyl]-2-(2,2,2-trifluoro-1,1-dimethylethyl)quinoline-6-carboxamide], for which the IC50 is 0.0318 µM.

Regarding `COc1cc(Cl)c([C@@H](C)NC(=O)c2ccc3nc(C(C)(C)C)ccc3c2)cc1C` [Example D4, 2-tert-Butyl-N-[(1R)-1-(2-chloro-4-methoxy-5-methylphenyl)ethyl]quinoline-6-carboxamide], the IC50 was found to be 0.27 µM. `COc1cc([C@@H](C)NC(=O)c2ccc3nc(C(C)(C)C)ccc3c2)c(Cl)cc1O` [Example D1, 2-tert-Butyl-[(1R)-1-(2-chloro-4-hydroxy-5-methoxyphenyl)ethyl]quinoline-6-carboxamide] registered an IC50 of 0.0741 µM. Consider `Cc1cc(CNC(=O)c2ccc3nc(C(C)(C)C)ccc3c2)c(Cl)cc1O` [Example D10, 2-tert-Butyl-N-(2-chloro-4-hydroxy-5-methylbenzyl)quinoline-6-carboxamide], for which half-maximal inhibition (IC50) was put at 0.311 µM. Take `Cc1cc(C(C)NC(=O)c2ccc3nc(C(C)(C)C(F)(F)F)ccc3c2)c(F)cc1CO` (stereo not drawn) [Example D14, N-{1-[2-Fluoro-4-(hydroxymethyl)-5-methylphenyl]ethyl}-2-(2,2,2-trifluoro-1,1-dimethylethyl)quinoline-6-carboxamide]: the IC50 is 0.0655 µM.

Compound `COc1cc(CNC(=O)c2ccc3nc(C(C)(C)C)ccc3c2)c(Br)cc1O` [Example D3, N-(2-Bromo-4-hydroxy-5-methoxybenzyl)-2-tert-butylquinoline-6-carboxamide] gave an IC50 of 0.403 µM. This IC50 lies about 6.2-fold higher than the previous one. `COc1cc(CNC(=O)c2ccc3cc(C(C)(C)C)ccc3n2)c(Cl)cc1O` [Example B1] gave an IC50 of 0.59 µM. In the case of `Cc1cc([C@@H](C)NC(=O)c2ccc3cc(C(C)(C)C)ccc3c2)c(Cl)cc1O` [Example A2, 6-tert-Butyl-N-[(1R)-1-(2-chloro-4-hydroxy-5-methylphenyl)ethyl]-2-naphthamide], the IC50 came to 0.0342 µM. The compound `COc1cc(Cl)c([C@@H](C)NC(=O)c2ccc3nc(C(C)(C)C(F)(F)F)ccc3c2)cc1C` [Example D12, N-[(1R)-1-(2-Chloro-4-methoxy-5-methylphenyl)ethyl]-2-(2,2,2-trifluoro-1,1-dimethylethyl)quinoline-6-carboxamide] returned an IC50 of 0.181 µM.

Turning to `Cc1cc(CNC(=O)c2ccc3nc(C(C)(C)C)ccc3c2)c(F)cc1O` [Example D11, 2-tert-Butyl-N-(2-fluoro-4-hydroxy-5-methylbenzyl)quinoline-6-carboxamide], it took 0.501 µM to reach half-maximal inhibition (IC50). Compared with the last compound, the IC50 is about 2.8-fold higher. For the compound `Cc1cc([C@@H](C)NC(=O)c2cnc3cc(C(F)(F)F)ccc3c2)c(Cl)cc1O` [Example C2, N-[(1R)-1-(2-Chloro-4-hydroxy-5-methylphenyl)ethyl]-7-(trifluoromethyl)quinoline-3-carboxamide], 0.667 µM corresponded to half-maximal inhibition (IC50).
